{"source": "patent US20260364186A1", "about": "“Chemical Conjugates, Compositions, and Methods of Preparation and Use Thereof” (Transfection Holdings Limited, priority 2022, published 2026)", "key": {"Jurkat cells": {"test_system": "Jurkat cells", "test": "Flow cytometry time course of uptake (Example 12)", "assay_type": "cell-based, human", "settings": "200 nM", "procedure": "FIG. 12: Time course of uptake for compounds 124, 126, and 132 at 200 nM after 5, 30 or 60 minute incubation with Jurkat cells. Mean fluorescent intensities (MFI). 1,000 cells were sorted by FACS. Bars represent mean±SD. Results represents a single experiment done in triplicate.\nMaterials and methods: For this study, 7.7×10^5 Jurkat cells were centrifuged for 5 minutes at 2500 RPM. The supernatant was removed and the cells were diluted in RPMI media (supplemented with 1% FBS+1% penicillin-streptomycin) to 400 cells/μL. Next, 28 μL of 100 μM stock solutions from compound 124, 126, or 132 were diluted with 6972 μL of RPMI media (supplemented with 1% FBS+1% penicillin-streptomycin) to give a 400 nM solution. Following this, 250 μL of conjugate solutions (giving a 200 nM final concentration) and 250 μL of cell suspensions were then added to each well in a 96 well plate. In addition, 250 μL of media only was added to the DMSO control wells. Incubation was carried out for 5, 30 and 60 minutes at 37 °C in triplicate wells for each compound and time point.\nAfter incubation, cells were centrifuged for 1.5 minutes at 5000 RCF. Supernatant was removed and the cell pellet re-suspended in 200 μL fresh RPMI media, transferred to 96 well-plate and each cell suspension analysed by flow cytometry. Flow cytometry results represent the mean of the fluorescence intensities (in arbitrary units) measured for cells sorted in every sample."}, "[1]": {"test_system": "mouse embryonic fibroblasts MEF", "test": "FACS uptake of BODIPY FL conjugates (Example 4)", "assay_type": "cell-based", "settings": "200 nM, 5 min, S enantiomer vs R", "procedure": "FIG. 4B: Conjugate compounds coupled to BODIPY FL were tested for uptake using 200 nM each conjugate and 5 minute incubation with mouse embryonic fibroblasts MEF. Mean fluorescent intensities (MFI). 1,000 cells were sorted by FACS.\nFibroblasts are ubiquitous mesenchymal cells that are thought to play important roles in wound repair and healing, and serve as reservoirs of multipotent progenitors capable of repopulating depleted cell compartments. Primary mouse embryonic fibroblast (MEF) cultures consist of highly heterogeneous populations of distinct cell types. Singhal, P. K., et al., 2016. MEF cells have a limited growth capacity and on prolonged passaging spontaneously immortalize at a low frequency. In contrast to transformation of primary MEF cells that requires the presence of two cooperating oncogenes, immortalised MEF cells can be transformed by a single oncogene (Ras) resulting in a loss of contact inhibition, anchorage-independent growth, and tumour formation in nude mice. Studies of MEF cells have played an important role in the elucidation of the molecular mechanisms underlying cellular immortalization, transformation, and tumorigenesis. Additionally, utilization of MEF cells disrupted for specific genes has provided a powerful tool to analyse the genetic regulation of these cellular processes. Sun and Taneja, 2007. […]"}, "[2]": {"test_system": "NZM11 melanoma cancer cell line", "test": "FACS uptake of BODIPY FL conjugates, 50 nM, 5 min (Example 1)", "assay_type": "cell-based, human", "procedure": "FIG. 1. Conjugate compounds coupled to BODIPY FL were tested for uptake using 50 nM each conjugate and 5 minute incubation with HEM (human epidermal melanocytes) and melanoma cell line NZM11 (BRAF V600E mutant metastatic melanoma). Mean fluorescent intensities (MFI). For these tests, n=300-500, mean±SD. Results were from a single experiment done in triplicate. Cells were sorted by FACS.\nMaterials and methods: NZM11 is an adherent metastatic melanoma cell derived from a patient with a subcutaneous lesion on their mid back. This human metastatic melanoma is identified with code CBA-1398 from Cell bank Australia. […] Cells of NZM11 diluted in MEMα media and cells of HEMnDP (primary melanocyte cell line) diluted in media 254 were left to settle in 96-wells microplate for 48 hours. 10 μL of 10 mM stock solutions in DMSO from 138 and pantothenic acid/pantothenic acid derivatives coupled to BODIPY were diluted with HBSS to afford 100 nM solution. Then, 100 nM compounds and DMSO solutions were diluted 1:1 with MEMα media for NZM11 and media 254 for HEMnDP to afford 50 nM solutions. After the 48 hour settle time, media was removed from the cells and 200 μL of 50 nM media solutions were poured to each well and incubated for 5 minutes at 37 °C. […] The FACS results output represented the mean of the fluorescence intensities (in arbitrary units) measured for cells sorted in every sample"}, "[3]": {"test_system": "NZM011, NZM009, NZM012, NZM022 and NZM077 cells", "test": "Flow cytometry uptake into metastatic melanoma lines (Example 11)", "assay_type": "cell-based, human", "settings": "200 nM, 30 minutes, five cell lines", "procedure": "FIG. 11: Uptake for compounds 124, 126, and 132 at 200 nM and 30 minute incubation with melanoma cell lines: NZM12 (NZM012) (BRAF V600E mutant metastatic melanoma, homozygous deletion CDKN2A and low invasive cell line), NZM77 (NZM077) (BRAF V600E mutant metastatic melanoma and missense NF1), NZM22 (NZM022) (BRAF G466A mutant metastatic melanoma, P53 241S/T mutant, NF1 non-frameshift insertion and PTEN epigenetic silencing). NZM9 (NZM009) (P53 179C/T mutant and homozygous silencing CDKN2A). NZM11 (NZM011) (BRAF V600E mutant metastatic melanoma and homozygous deletion CDKN2A), as positive control. Mean fluorescent intensities (MFI). 1,500-2,000 cells were obtained. Bars represent mean±SD. Results are from a single experiment done in triplicate. Cells were analysed by FACS.\nMethods: For screening, NZM011, NZM009, NZM012, NZM022 and NZM077 cells were suspended at 250 cells per μL in MEMα media and 200 μL was dispensed into 96 well plates. The cells were left to settle for 24 hours for NZM011, NZM012 and NZM077 and 48 hours for NZM009 and NZM022 at 37 °C, 5% O2, 5% CO2. Before addition to the cells, 10 μL of 10 mM stock solutions in DMSO of compounds 124, 126, and 132 were diluted with 1% FBS MEMα media to give a 200 nM solution.\nAfter the appropriate settle time, the media was removed from the 96 well plates and 200 μL of 200 nM conjugate solutions and DMSO control were dispensed to each well (in triplicate) and incubated for 30 minutes at 37 °C, 5% O2, 5% CO2. After 30 minutes, the media was removed and cells washed with PBS. Next, 100 μL of TrypLE trypsin (ThermoFisher Scientific) was added to each well and incubated for 5 minutes at 37 °C. After this, 150 μL of MEMα media (plus 1% FBS for NZM011, NZM012 and NZM077; plus 5% FBS for NZM009 and NZM022) were added. Cells were analysed by flow cytometry using a FACS biosort and FITC filter. Flow cytometry results represent the mean of the fluorescence intensities (in arbitrary units) measured for cells sorted in every sample."}, "[4]": {"test_system": "NZM11 (BRAF V600E mutant metastatic melanoma) cells", "test": "Sulforhodamine B (SRB) assay of viability / proliferation, auranofin conjugates (Example 8)", "assay_type": "cell-based, human", "settings": "200 μM, 48 hours", "procedure": "FIG. 8: Effect of 136 and 137 (auranofin conjugates) on viability of NZM11 melanoma cells. Cells were incubated with 136 and 137 at 10 μM final concentration and kept at 37 °C for 48 hours. Pantothenic acid (PA), CJ-15,801, and biotin were tested at 200 μM final concentration. […] Two batches of auranofin were tested at 10 μM final concentration.\nFIG. 9: The viability data from FIG. 8 was normalised to the treatment plate and DMSO control and plotted as a percentage of cell growth. Individual data points represent technical replicates. Curve indicates non-linear regression slope, which allows determination of IC50 values.\nMaterials and methods: NZM11 cells were cultured in MEMα media with an initial count of 1020 cells/μL. The cells were then diluted to get 25 cells per μL and 200 μL of this suspension (5000 cells per well), dispensed into 96 well plates and left to settle for 24 hours. 10 mM stock solutions of 136, 137, and auranofin were diluted with 1% FBS MEMα media to give 10 nM, 30 nM, 100 nM, 300 nM, 1 μM, 3 μM, 10 μM, 30 μM and 100 μM solutions. After 24 hours the media was removed from the 96 well plates. To individual wells 200 μL of each dilution were dispensed in triplicate for three groups (136, 137, and auranofin): 1% FBS MEMα media only (DMSO control), 10 nM, 30 nM, 100 nM, 300 nM, 1 μM, 3 μM, 10 μM, 30 μM and 100 μM. The cells were incubated at 37 °C, 5% 02 and 5% CO2 for 48 hours.\nIn order to test the potency of 136 and 137, the IC50 values were calculated for these auranofin conjugates. For analysis of the treatment plate (Tz) a SRB assay was utilised. For this assay, 50 μL of 50% (w/v) ice-cold trichloroacetic acid (TCA) was added to each well. To achieve this, 5 g of TCA was made up to 10 mL with milliQ H2O. This was cooled on ice. Incubation was carried out for 1 hour at 4 °C to fix cells. TCA and media were removed from cells. Five milliQ washes were carried out and the plate was left to air dry. Next, 50 μL of 0.4% SRB solution (prepared in 1% acetic acid) was added to each well and incubated for 10 minutes at room temperature. The SRB solution was removed and five milliQ washes were carried out. Then, 100 μL of 10 mM Tris solution was added to each well, and the dye was solubilised. Absorbance at 515 nm was read on plate reader. Data was normalized to Tz plate, as per NCI60 screening method (https://dtp.cancer.gov/discovery_development/nci-60/methodology.htm)."}, "astrocytes": {"test_system": "astrocytes", "test": "Protein content after 48 hour incubation (Example 9)", "assay_type": "cell-based, human", "settings": "5, 25 and 100 μM", "procedure": "(§1) Glioblastoma cells were used to determine viability and growth by measurement of protein levels. Protein content of glioblastoma cells was determined after 48 hour incubation with compound 138 or PA at 5, 25 and 100 μM final concentration. For To, protein levels were determined at the start of the test (before addition of test compounds). For the control, protein levels were determined for cells incubated for 48 hours in the absence of the test compounds. Astrocytes were used as a non-cancer cell line control. U87: this cell line has epithelial morphology that was isolated from malignant gliomas from a patient, likely with glioblastoma. SF188: this glioblastoma cell line was derived from the left temporal lobe tumour of a patient. U251: this cell line expresses epidermal growth factor receptor (EGFR) receptors, for inhibition studies. LN229: This cell line has a mutation on TP53; Simple; p.Pro98Leu. LN18: This cell line is negative for glial fibrillary acidic proteins and S100 (S-100) protein. […] GUVW cells were also utilised."}, "glioblastoma cells": {"test_system": "glioblastoma cells", "test": "Protein content after 48 hour incubation (Example 9)", "assay_type": "cell-based, human", "settings": "5, 25 and 100 μM", "procedure": "FIGS. 10A-10B: Protein content of glioblastoma cells after 48 hour incubation with compound 138 or PA at 5, 25 and 100 μM final concentration. To indicates protein levels at the beginning of the test. Control indicates protein levels in cells which were incubated for 48 hours without exposure to 138 or PA.\nas §1"}, "melanoma cell lines": {"test_system": "melanoma cell lines", "settings": "previous results, read-out: concentration showing inhibition of 50% of the population; cited from earlier work"}}, "note": "“Also recorded” adds a separate entry of the source."}
{"smiles": "CC1=CC(C)=[N+]2C1=Cc1ccc(CCCn3cc(CCNC(=O)/C=C/NC(=O)[C@@H](O)C(C)(C)CO)nn3)n1[B-]2(F)F", "note": "[Compound 126, (E)-N-((((3-[4,4-Difluoro-5,7-dimethyl-4-bora-3a,4a-diaza-s-indacene-3-yl]propyl)-1H-1,2,3-triazol-4-yl)ethylamino)-3-oxoprop-1-enyl)-2,4-dihydroxy-3,3-dimethylbutanamide]", "values": [{"measurement": "time of highest uptake", "setting": "Jurkat cells", "value": 60, "unit": "min"}, {"measurement": "times lower than 124 uptake", "setting": "Jurkat cells; 60 minutes", "value": 4, "unit": "times"}, {"measurement": "uptake increase compared to DMSO control", "setting": "Jurkat cells; 60 minutes", "value": "three times higher"}, {"measurement": "lower intensities than the R derivatives", "setting": "[1]", "value": "around 50%"}, {"measurement": "mean intensity compared to the 124 conjugate", "setting": "[2]", "value": 25, "unit": "%"}, {"measurement": "times less uptake than 124", "setting": "[3]", "value": "5-12 times"}]}
{"smiles": "CC(C)(CO)[C@@H](O)C(=O)N/C=C/C(=O)O", "note": "[Compound 138, (R,E)-3-(2,4-Dihydroxy-3,3-dimethylbutanamido)acrylic acid]", "values": [{"measurement": "viability / cell proliferation", "setting": "[4]", "value": "little to no effect on cell proliferation"}, {"measurement": "protein content / protein levels", "setting": "astrocytes", "value": "little to no effect on protein levels"}, {"measurement": "protein content / protein levels", "setting": "glioblastoma cells", "value": "little to no effect on protein levels"}]}
{"smiles": "CC[P](CC)(CC)=[Au][S][C@@H]1O[C@H](COC(C)=O)[C@@H](OC(C)=O)[C@H](OC(C)=O)[C@H]1OC(C)=O", "note": "[auranofin]", "values": [{"measurement": "IC50", "setting": "melanoma cell lines", "value": "≤ 0.5", "unit": "µM"}]}
{"smiles": "CC(C)(CO)[C@@H](O)C(=O)NCCC(=O)O", "note": "[pantothenic acid]", "values": [{"measurement": "protein content / protein levels", "setting": "astrocytes", "value": "comparable content of proteins with the control; also recorded: little to no effect on protein levels"}, {"measurement": "protein content / protein levels", "setting": "glioblastoma cells", "value": "comparable content of proteins with the control; also recorded: little to no effect on protein levels"}]}
